Laboratory results as given in US20030212123A1, “COX-2 selective carprofen for treating pain and inflammation in dogs” (Pfizer Inc., priority 1997, published 2003).
Several values for one entry are separate records, joined by “and”; a condition that tells them apart may be missing. Equal values may be shown once. Read-outs that look alike come from different tables or passages of the source.

How the values were obtained:
[1] = Total plasma carprofen concentration by chiral HPLC, Example 3; format: in vivo, dog; settings: individual dogs
Source text: (§1) The ether layer was separated, then back-extracted with 0.005 M Na2CO3, after which the organic phase was discarded by aspiration. The aqueous phase was buffered with 0.05 M citric acid pH 5.1, then was again extracted with diethyl ether:dichloromethane. The ether was then transferred to clean tubes, evaporated under a stream of nitrogen, and the residue reconstituted in HPLC mobile phase for analysis.
as §1

[2] = at equipotent anti-inflammatory activity with indomethacin, Holtsinger et al.; cited from earlier work
COX-1 [3] = target: T1, COX-1 (Rattus norvegicus, UniProt Q63921); test: Rat in vivo COX-1: PGE2 production in mucosal lining of stomach (Griffiths et al.)
T1 construct: as measured in the mucosal lining of the rat stomach; from tissue; host or cells: mucosal lining of the rat stomach, in vivo
T1 sequence (Q63921 27-602): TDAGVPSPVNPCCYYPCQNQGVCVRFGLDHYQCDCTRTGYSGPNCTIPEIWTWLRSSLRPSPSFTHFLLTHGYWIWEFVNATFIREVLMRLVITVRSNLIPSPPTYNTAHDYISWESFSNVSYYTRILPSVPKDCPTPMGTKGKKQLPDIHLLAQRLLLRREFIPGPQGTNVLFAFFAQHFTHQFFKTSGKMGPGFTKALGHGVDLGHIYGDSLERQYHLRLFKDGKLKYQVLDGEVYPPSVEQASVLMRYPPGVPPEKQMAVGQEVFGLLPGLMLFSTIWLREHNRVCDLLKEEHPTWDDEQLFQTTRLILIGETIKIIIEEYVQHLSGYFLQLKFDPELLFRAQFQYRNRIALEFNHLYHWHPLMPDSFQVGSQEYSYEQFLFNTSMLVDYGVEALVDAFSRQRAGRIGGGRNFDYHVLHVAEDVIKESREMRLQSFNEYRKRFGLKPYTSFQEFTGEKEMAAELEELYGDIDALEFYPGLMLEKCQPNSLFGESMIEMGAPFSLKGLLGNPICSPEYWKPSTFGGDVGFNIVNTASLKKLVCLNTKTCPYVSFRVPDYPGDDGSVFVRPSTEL
Experimental: In vivo cyclo-oxygenase selectivity was evaluated in rats by the method of Griffiths et al., described in Agents & Actions, 32, (1991), 313-320. […] Synovial fluid is secreted by the synovial membrane and is contained in joint cavities. During joint inflammation, COX-2 is induced in joint tissues and prostaglandin products accumulate in the synovial fluid. […] Inhibition of this stomach isozyme results in adverse gastrointestinal side effects.

COX-2 = COX-2 (Canis lupus familiaris, UniProt Q8SPQ9); test: in vivo; settings: for PGE2 Pg/mL/Well: individual dogs; for inhibition at 2 mg/kg / inhibition at 4 mg/kg: dog, po
Chain of COX-2 (Q8SPQ9 18-604): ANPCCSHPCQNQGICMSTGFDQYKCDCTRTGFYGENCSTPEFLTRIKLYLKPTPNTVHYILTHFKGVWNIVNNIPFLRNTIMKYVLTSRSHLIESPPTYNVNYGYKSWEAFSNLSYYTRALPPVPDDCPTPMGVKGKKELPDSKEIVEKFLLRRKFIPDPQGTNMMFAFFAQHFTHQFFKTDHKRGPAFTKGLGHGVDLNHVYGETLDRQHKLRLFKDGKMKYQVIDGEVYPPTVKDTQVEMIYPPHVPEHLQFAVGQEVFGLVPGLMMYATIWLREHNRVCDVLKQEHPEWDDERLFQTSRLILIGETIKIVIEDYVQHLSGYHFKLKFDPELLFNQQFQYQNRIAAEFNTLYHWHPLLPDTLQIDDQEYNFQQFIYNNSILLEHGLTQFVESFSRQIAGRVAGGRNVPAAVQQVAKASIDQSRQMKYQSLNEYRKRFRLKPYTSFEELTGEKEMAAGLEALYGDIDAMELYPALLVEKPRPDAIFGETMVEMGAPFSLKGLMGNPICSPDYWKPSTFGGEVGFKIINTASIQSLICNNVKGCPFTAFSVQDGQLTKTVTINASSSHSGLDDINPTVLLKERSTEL
Experimental: A zero-hour blood sample was collected from all dogs in the study prior to dosing, followed by 2- and 4-hour post-dose blood sample collections. Test tubes were prepared containing 2 μL of lipopolysaccharide (LPS) to give a 10 μg/mL final concentration. Untreated test tubes were used as controls. A 500 μL sample of blood was added to each of the above-described test tubes, after which they were incubated at 37° C. overnight. After incubation […] of EDTA was added to give a final concentration of 0.3%. The incubated samples were centrifuged at 4° C. and the resulting plasma sample of 200 μL was collected and stored at −20° C. in propylene 96-well plates. Enzyme immunoassay (EIA) kits available from Cayman were used to measure production of PGE2, with endpoint determination by colorimetry. Plasma samples were diluted to 1/750 for PGE2.

COX-1 [4] = target: T2, COX-1 (Canis lupus familiaris, UniProt Q8HZR1); test: Canine whole blood ex vivo COX-1 activity (A23187-stimulated TXB2), Example 2; format: in vivo, dog; settings: for TXB2 Pg/mL/Well: group average; for inhibition at 2 mg/kg / inhibition at 10 mg/kg: dog, po, based on zero hour value, read-out: COX-1 activity Percent Inhibition
T2 construct: using an ex vivo procedure on canine whole blood; from tissue; host or cells: whole blood of dosed dogs, stimulated with calcium ionophore A23187
T2 sequence (Q8HZR1 28-603): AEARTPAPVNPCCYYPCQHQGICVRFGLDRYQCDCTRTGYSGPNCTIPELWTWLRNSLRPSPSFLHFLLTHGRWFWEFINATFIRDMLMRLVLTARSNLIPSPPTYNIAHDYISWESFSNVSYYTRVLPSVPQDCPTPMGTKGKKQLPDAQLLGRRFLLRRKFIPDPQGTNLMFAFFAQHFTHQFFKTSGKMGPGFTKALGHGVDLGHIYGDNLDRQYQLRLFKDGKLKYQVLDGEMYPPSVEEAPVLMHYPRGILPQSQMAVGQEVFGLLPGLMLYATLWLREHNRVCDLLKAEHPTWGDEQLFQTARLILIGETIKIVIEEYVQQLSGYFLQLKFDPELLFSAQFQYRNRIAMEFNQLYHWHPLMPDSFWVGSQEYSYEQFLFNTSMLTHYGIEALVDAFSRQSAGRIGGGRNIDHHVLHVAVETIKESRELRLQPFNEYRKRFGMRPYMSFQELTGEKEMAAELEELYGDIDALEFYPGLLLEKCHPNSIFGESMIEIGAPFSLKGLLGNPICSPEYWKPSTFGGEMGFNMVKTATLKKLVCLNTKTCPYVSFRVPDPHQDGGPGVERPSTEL
Source text: Plasma dilution was not factored in said data values.

[5] = inspection of plot of plasma level vs % COX-2 inhibition (Example 3 data)

Compound: CC(C(=O)O)c1ccc2c(c1)[nH]c1ccc(Cl)cc12 (racemic) [Carprofen (rac.), 6-chloro-α-methyl-9H-carbazole-2-acetic acid]
- Plasma concentration ([1]; 2 mg/kg PO tablet, 2-hour): 21900 ng/mL and 8600 ng/mL and 17200 ng/mL
- Plasma concentration ([1]; 2 mg/kg PO tablet, 4-hour): 13400 ng/mL and 5700 ng/mL and 10600 ng/mL
- Plasma concentration ([1]; 4 mg/kg PO tablet, 2-hour): 29900 ng/mL and 29000 ng/mL
- Plasma concentration ([1]; 4 mg/kg PO tablet, 4-hour): 21100 ng/mL and 27000 ng/mL
- concentration at 2 h ([1]; dog, plasma, oral, 4 mg/kg, 4 mg/kg PO tablet, 2-hour): 37600 ng/mL
- concentration at 4 h ([1]; dog, plasma, oral, 4 mg/kg, 4 mg/kg PO tablet, 4-hour): 29100 ng/mL
- ulcerogenic potential, times less than indomethacin [2]: 16 times
- ED50 (COX-1 [3]): 6.4 mg/kg
- PGE2 Pg/mL/Well (COX-2; 2 mg/kg PO tablet, 0-hour (pre-dose)): 293 Pg/mL/Well and 541 Pg/mL/Well and 409 Pg/mL/Well
- PGE2 Pg/mL/Well (COX-2; 4 mg/kg PO tablet, 0-hour (pre-dose)): 471 Pg/mL/Well and 393 Pg/mL/Well and 622 Pg/mL/Well
- PGE2 Pg/mL/Well (COX-2; 4 mg/kg PO tablet, 2-hour post-dose): 25 Pg/mL/Well and 21 Pg/mL/Well and 14 Pg/mL/Well
- PGE2 Pg/mL/Well (COX-2; 4 mg/kg PO tablet, 4-hour post-dose): 20 Pg/mL/Well and 25 Pg/mL/Well and 14 Pg/mL/Well
- inhibition at 2 mg/kg (COX-2; read-out: COX-2 activity Percent Inhibition, 2 mg/kg PO tablet, 2-hour, based on each dog's zero hour value): 88%
- inhibition at 2 mg/kg (COX-2; read-out: COX-2 activity Percent Inhibition, 2 mg/kg PO tablet, 4-hour, based on each dog's zero hour value): 77%
- inhibition at 4 mg/kg (COX-2; read-out: COX-2 activity Percent Inhibition, 4 mg/kg PO tablet, 2-hour, based on each dog's zero hour value): 95%
- inhibition at 4 mg/kg (COX-2; read-out: COX-2 activity Percent Inhibition, 4 mg/kg PO tablet, 4-hour, based on each dog's zero hour value): 96%
- plasma carprofen concentration at which 80% COX-2 inhibition occurred (COX-2; [5]): approximately 10 μg/mL
- plasma carprofen concentration at which 90% COX-2 inhibition occurred (COX-2; [5]): approximately 20 μg/mL
- TXB2 Pg/mL/Well (COX-1 [4]; 2 mg/kg PO capsule, 0-hour (pre-dose)): 72 Pg/mL/Well
- TXB2 Pg/mL/Well (COX-1 [4]; 2 mg/kg PO capsule, 1-hour post-dose): 75 Pg/mL/Well
- TXB2 Pg/mL/Well (COX-1 [4]; 2 mg/kg PO capsule, 3-hour post-dose): 66 Pg/mL/Well
- TXB2 Pg/mL/Well (COX-1 [4]; 2 mg/kg PO capsule, 6-hour post-dose): 46 Pg/mL/Well
- TXB2 Pg/mL/Well (COX-1 [4]; 10 mg/kg PO capsule, 0-hour (pre-dose)): 51 Pg/mL/Well
- TXB2 Pg/mL/Well (COX-1 [4]; 10 mg/kg PO capsule, 1-hour post-dose): 31 Pg/mL/Well
- TXB2 Pg/mL/Well (COX-1 [4]; 10 mg/kg PO capsule, 3-hour post-dose): 6 Pg/mL/Well
- TXB2 Pg/mL/Well (COX-1 [4]; 10 mg/kg PO capsule, 6-hour post-dose): 7 Pg/mL/Well
- inhibition at 2 mg/kg (COX-1 [4]; 2 mg/kg PO capsule, 1-hour): 0%
- inhibition at 2 mg/kg (COX-1 [4]; 2 mg/kg PO capsule, 3-hour): 8%
- inhibition at 2 mg/kg (COX-1 [4]; 2 mg/kg PO capsule, 6-hour): 36%
- inhibition at 10 mg/kg (COX-1 [4]; 10 mg/kg PO capsule, 1-hour): 39%
- inhibition at 10 mg/kg (COX-1 [4]; 10 mg/kg PO capsule, 3-hour): 88%
- inhibition at 10 mg/kg (COX-1 [4]; 10 mg/kg PO capsule, 6-hour): 86%
